Source: PMC8815882, “Screening the pandemic response box identified benzimidazole carbamates, Olorofim and ravuconazole as promising drug candidates for the treatment of eumycetoma” (PLoS Neglected Tropical Diseases, 2022)
“And” between values parts separate entries of the source, which are not always exact repeats. Identical values can stand only once. Like-named read-outs stand apart in the source and are kept apart here.

System: M. mycetomatis genome strain MM55
Test: CLSI M38-A2 based in vitro susceptibility screening (XTT or resazurin), growth at fixed concentration
Assay type: cell-based, Madurella mycetomatis
Settings: for activity at 25 µM / activity at 100 µM / Percent fungal survival at 100 µM: Madurella mycetomatis; for Percent fungal survival at 100 µM: read-out: Percentage survival at 100um, 100 uM A (second replicate column)
[1] = 25 uM, replicate A, read-out: Percentage survival at 25um, 25 um A
[2] = 25 uM, replicate B, read-out: Percentage survival at 25um, 25 uM B
[3] = 25 uM, replicate C, read-out: Percentage survival at 25um, 25 uM C
[4] = 25 uM, mean of three, M. mycetomatis MM55, read-out: Percentage survival at 25um, 25 uM mean
[5] = 25 uM, replicate A, M. mycetomatis MM55, read-out: Percentage survival at 25um, 25 um A
[6] = 25 uM, replicate B, M. mycetomatis MM55, read-out: Percentage survival at 25um, 25 uM B
[7] = 25 uM, replicate C, M. mycetomatis MM55, read-out: Percentage survival at 25um, 25 uM C
[8] = 100 uM, mean of three, M. mycetomatis MM55, read-out: Percentage survival at 100um, 100 uM mean
[9] = 100 uM, replicate 1, M. mycetomatis MM55, read-out: Percentage survival at 100um, 100 uM A (first replicate column)
[10] = 100 uM, replicate 2, M. mycetomatis MM55
[11] = 100 uM, replicate 3, M. mycetomatis MM55, read-out: Percentage survival at 100um, 100 uM A (third replicate column)
[12] = read-out: Percentage survival at 25um, 25 uM B
[13] = read-out: Percentage survival at 25um, 25 uM C
[14] = read-out: Percentage survival at 25um, 25 uM mean

SMILES | activity at 25 µM [1] [%] | activity at 25 µM [4] [%] | activity at 25 µM [5] [%] | activity at 25 µM [6] [%] | activity at 25 µM [7] [%] | activity at 100 µM [8] [%] | activity at 100 µM [9] [%] | Percent fungal survival at 100 µM [10] [%] | activity at 100 µM [11] [%] | further results
CCCCCCC1c2ccc(O)cc2Oc2cc(O)ccc21 [MMV1593535] | 72.8 |  |  |  |  |  |  |  |  | activity at 25 µM (25 uM, mean, read-out: Percentage survival at 25um, 25 uM mean): 72.3%; activity at 25 µM [2]: 89.7%; activity at 25 µM [3]: 54.6%; activity at 100 µM (100 uM, mean, read-out: Percentage survival at 100um, 100 uM mean): 21.5%; activity at 100 µM (100 uM, replicate (first column), read-out: Percentage survival at 100um, 100 uM A): 10.9%; activity at 100 µM (100 uM, replicate (second column), read-out: Percentage survival at 100um, 100 uM A): 14.4%; activity at 100 µM (100 uM, replicate (third column), read-out: Percentage survival at 100um, 100 uM A): 39.1%
Fc1ccc(-c2nc(-c3c[nH]c4ccc(Br)cc34)[nH]c2-c2ccc(F)cc2)cc1 [MMV1593537] |  | 61.4 | 38 | 20.2 | 126 | 3.84 | 4.18 | 1.82 | 5.52 | 
NC1(C(=O)O)CCP(=O)(O)CC1 (stereo not drawn) [MMV1593538] | 56.1 |  |  |  |  |  |  |  |  | activity at 100 µM (100 uM, mean of replicates, read-out: Percentage survival at 100um, 100 uM mean): 65.8%; activity at 100 µM (100 uM, replicate 1, read-out: Percentage survival at 100um, 100 uM A): 72.6%; activity at 100 µM (100 uM, replicate 2, read-out: Percentage survival at 100um, 100 uM A): 66.4%; activity at 100 µM (100 uM, replicate 3, read-out: Percentage survival at 100um, 100 uM A): 58.5%; activity at 25 µM [12]: 68.9%; activity at 25 µM [13]: 67%; activity at 25 µM [14]: 64%
COc1ccc2cc3[n+](cc2c1OCCN(CCn1cncn1)Cc1ccc(F)cc1F)CCc1cc2c(cc1-3)OCO2 [MMV1593540] |  | 87.6 | 96.5 | 90.9 | 75.5 | 84.2 | 80.5 | 83.8 | 88.4 | 
Nc1nc(Nc2ccc3nc(-c4ccc(F)cc4)cc(N)c3c2)cc(-c2ccccc2)n1 [MMV1593541] |  | 65.8 | 82.5 | 80.3 | 34.5 | 2.33 | 5.55 | 5.6 | -4.16 | 
OCCCCn1cnc2c(O)nc(NCc3ccc(Cl)c(Cl)c3)nc21 [MMV1593542] |  | 73.1 | 73.4 | 73.3 | 72.6 | 74.4 | 82.6 | 70.6 | 70.1 | 
COc1cc(C(C(=O)NC2CCCCC2)N(C(=O)Cc2c[nH]c3ccccc23)c2ccc(C(C)C)cc2)cc(OC)c1OC (stereo not drawn) [MMV1593544] |  |  |  |  |  |  |  |  |  | activity at 25 µM (25 uM, mean of replicates, MM55, read-out: Percentage survival at 25um, 25 uM mean): 98.2%; activity at 25 µM (25 uM, replicate A, MM55, read-out: Percentage survival at 25um, 25 um A): 107%; activity at 25 µM (25 uM, replicate B, MM55, read-out: Percentage survival at 25um, 25 uM B): 106%; activity at 25 µM (25 uM, replicate C, MM55, read-out: Percentage survival at 25um, 25 uM C): 81.3%; activity at 100 µM (100 uM, mean of replicates, MM55, read-out: Percentage survival at 100um, 100 uM mean): 88.5%; activity at 100 µM (100 uM, replicate 1, MM55, read-out: Percentage survival at 100um, 100 uM A): 98%; activity at 100 µM (100 uM, replicate 2, MM55, read-out: Percentage survival at 100um, 100 uM A): 88.7%; activity at 100 µM (100 uM, replicate 3, MM55, read-out: Percentage survival at 100um, 100 uM A): 78.7%
CC1(C)C[C@H]1C(=O)N/C(=C\CCCCSC[C@@H](N)C(=O)O)C(=O)O [MMV1613559] |  |  |  |  |  |  |  |  |  | Percentage survival at 100um, 100 uM A: 93.1771% and 127.204% and 75.2981%; activity at 25 µM [12]: 95.4%; activity at 25 µM [13]: 77.8%; activity at 25 µM [14]: 92.2%; activity at 25 µM (read-out: Percentage survival at 25um, 25 um A): 103%; activity at 100 µM (read-out: Percentage survival at 100um, 100 uM mean): 98.6%
NC(=O)[C@@H]1CC[C@@H]2CN1C(=O)N2OS(=O)(=O)O [MMV1613560] |  | 88.8 | 94.4 | 88.3 | 83.7 | 85.1 | 93.4 | 67.9 | 94.1 | 
Cc1ncc([N+](=O)[O-])n1CC(O)CN1CCOCC1 (stereo not drawn) [MMV1613562] | 99.4 |  |  |  |  |  |  |  |  | activity at 25 µM (25 uM, mean of three replicates, read-out: Percentage survival at 25um, 25 uM mean): 110%; activity at 25 µM [2]: 137%; activity at 25 µM [3]: 94%; activity at 100 µM (100 uM, mean of three replicates, read-out: Percentage survival at 100um, 100 uM mean): 94.6%; activity at 100 µM (100 uM, replicate 1, read-out: Percentage survival at 100um, 100 uM A (first replicate column)): 93.7%; Percent fungal survival at 100 µM (100 uM, replicate 2): 86.5%; activity at 100 µM (100 uM, replicate 3, read-out: Percentage survival at 100um, 100 uM A (third replicate column)): 104%
